According to ChEMBL document CHEMBL1201862, “PubChem BioAssay data set” (2004):
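1) Cells in 96-well plates. 2) Compound, 48 h, 5 concentrations. 3) Linear interpolation between surrounding doses. 4) Unreached endpoint = highest concentration. GI50 is the concentration that inhibits growth by half.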 Active and inactive are the calls of the source. Rule as the data show it: active = GI50 up to about 1.1 µM and inactive = higher.

How the values were obtained:
Experiment in all cases: NCI-60 cell line screen, 48 h
[1] = test system: Hs-578T
[2] = test system: OVCAR-5
[3] = test system: OVCAR-4
[4] = test system: 786-0
[5] = test system: T47D
[6] = test system: RXF 393
[7] = test system: CCRF-CEM
[8] = test system: MDA-MB-435
[9] = test system: OVCAR-8
[10] = test system: HCC 2998
[11] = test system: COLO 205
[12] = test system: MDA-N
[13] = test system: MCF7
[14] = test system: PC-3
[15] = test system: EKVX
[16] = test system: MDA-MB-231
[17] = test system: SNB-19
[18] = test system: HL-60
[19] = test system: CAKI-1

SMILES | GI50 [1] | GI50 [2] | GI50 [3] | GI50 [4] | GI50 [5] | GI50 [6] | GI50 [7] | GI50 [8] | GI50 [9] | GI50 [10] | GI50 [11] | GI50 [12] | GI50 [13] | GI50 [14] | GI50 [15] | GI50 [16] | GI50 [17] | GI50 [18] | GI50 [19]
O=C(CCCl)NN=C1NCCCCN1 | > 100 µM (inactive) | > 100 µM (inactive) | > 100 µM (inactive) | > 100 µM (inactive) | > 100 µM (inactive) | > 100 µM (inactive) | > 100 µM (inactive) | > 100 µM (inactive) | > 100 µM (inactive) | > 100 µM (inactive) | > 100 µM (inactive) | > 100 µM (inactive) | > 100 µM (inactive) | > 100 µM (inactive) | > 100 µM (inactive) | > 100 µM (inactive) | > 100 µM (inactive) | > 100 µM (inactive) | 
COc1ccc(/C=C2\c3cc(OC)c(OC)cc3CCN2C(=O)c2ccccc2)cc1OC | 35.6 µM (inactive) | 55 µM (inactive) |  | 34.4 µM (inactive) | 33.3 µM (inactive) | 35.2 µM (inactive) | 32.3 µM (inactive) | 21.2 µM (inactive) | 27.5 µM (inactive) | 44.6 µM (inactive) | 23.9 µM (inactive) | 25 µM (inactive) | 43.9 µM (inactive) | 46.5 µM (inactive) | 4.09 µM (inactive) | 45.5 µM (inactive) | > 100 µM (inactive) | 23.1 µM (inactive) | 54 µM (inactive)
O=C1Oc2ccccc2C(=O)/C1=C/N1C(=O)/C(=C/c2ccc3c(c2)OCO3)SC1=S | 1.32 µM (inactive) | 16.6 µM (inactive) | 20.8 µM (inactive) | 43.4 µM (inactive) | 13.6 µM (inactive) | 17.2 µM (inactive) | 26.1 µM (inactive) | 18.7 µM (inactive) | 17.6 µM (inactive) | 17.3 µM (inactive) | 20.5 µM (inactive) | 24.9 µM (inactive) | 20.7 µM (inactive) | 15.8 µM (inactive) | 28.5 µM (inactive) | 25.1 µM (inactive) |  | 26.9 µM (inactive) | 17.5 µM (inactive)
CC1(C)O[C@@H]2[C@@H]3OC(=O)C[C@@H]3[C@@H](COCc3ccccc3)[C@@H]2O1 | > 100 µM (inactive) | > 100 µM (inactive) | > 100 µM (inactive) | > 100 µM (inactive) | > 100 µM (inactive) | > 100 µM (inactive) | > 100 µM (inactive) | > 100 µM (inactive) | > 100 µM (inactive) | > 100 µM (inactive) | > 100 µM (inactive) | > 100 µM (inactive) | > 100 µM (inactive) | > 100 µM (inactive) | > 100 µM (inactive) | > 100 µM (inactive) | > 100 µM (inactive) | > 100 µM (inactive) | > 100 µM (inactive)
Cc1ccc(/N=N\c2c(O)ccc3cc(S(=O)(=O)O)ccc23)cc1 | > 100 µM (inactive) | > 100 µM (inactive) | > 100 µM (inactive) | > 100 µM (inactive) | > 100 µM (inactive) | > 100 µM (inactive) | > 100 µM (inactive) | > 100 µM (inactive) | > 100 µM (inactive) | > 100 µM (inactive) | > 100 µM (inactive) | > 100 µM (inactive) | > 100 µM (inactive) | > 100 µM (inactive) | > 100 µM (inactive) | > 100 µM (inactive) | > 100 µM (inactive) | > 100 µM (inactive) | > 100 µM (inactive)
O=c1c2cc(Cl)ccc2n2nnc3ccc(NCCNCCO)c1c32 | 1.78 µM (inactive) | 1.64 µM (inactive) | 1.01 µM (active) | 0.741 µM (active) | 5.15 µM (inactive) | 1.79 µM (inactive) | 0.56 µM (active) | 1.12 µM (inactive) | 0.614 µM (active) | 1.37 µM (inactive) | 0.977 µM (active) | 1.1 µM (active) | 2.76 µM (inactive) | 1.16 µM (inactive) | 1.93 µM (inactive) | 1.47 µM (inactive) | 1.5 µM (inactive) | 1.78 µM (inactive) | 1.83 µM (inactive)
